In US20210308089A1, “METHODS OF TREATING AND/OR PREVENTING VIRAL INFECTIONS AND/OR DISEASES CAUSED BY VIRUSES IN A SUBJECT IN NEED THEREOF” (priority 2020, published 2021):

System: patients of the REDUCE-IT and earlier EPA placebo-controlled trials
Experiment: Example 3: adverse events by risk ratio, icosapent ethyl vs placebo (candidate categories; infectious disease terms of interest)
Conditions: R-I

With CC/C=C\C/C=C\C/C=C\C/C=C\C/C=C\CCCC(=O)OCC [icosapent ethyl, eicosapentaenoic acid ethyl ester] the “AR: Bipolar Disease (AE table)” value was 0.0%, the “AR: Blood CPK increased (AE table)” value was 1.6% and the “AR: Blood glucose increased (AE table)” value was 0.2%. For the same compound, the “AR: Bone Fractures (AE table)” value was 0.0%, the “AR: Bronchiectasis (AE table)” value was 0.1% and the “AR: Bronchitis chronic (AE table)” value was 0.2%. The “AR: CKD (AE table)” value was 1.3%, the “AR: COPD (AE table)” value was 2.7% and the “AR: Carotid bruit (AE table)” value was 0.4%. For the same compound, the “AR: Cholestasis (AE table)” value was 0.0%, the “AR: Chrohn's Disease (AE table)” value was 0.0% and the “AR: Cognitive Decline: Attention disorders and disturbances (AE table)” value was 0.0%. The “AR: Cognitive Decline: Cognitive and attention disorders and disturbances (AE table)” value was 0.0%, the “AR: Cough (AE table)” value was 5.9% and the “AR: Decreased Appetite (AE table)” value was 0.5%. For the same compound, the “AR: Deep Venous Thromboembolism (AE table)” value was 0.2%, the “AR: Depression: Depressed mood disorders and disturbances (AE table)” value was 2.9% and the “AR: Depression: Depressive disorders (AE table)” value was 2.8%. The “AR: Depression: Depressive disorders - Agitated depression (AE table)” value was 0.0%, the “AR: Depression: Depressive disorders - Depression (AE table)” value was 2.6% and the “AR: Depression: Depressive disorders - Major depression (AE table)” value was 0.0%. The “AR: Depression: Depressive disorders - Persistent depressive disorder (AE table)” value was 0.0%, the “AR: Depression: Mood alterations - Depressed mood (AE table)” value was 0.1% and the “AR: Depression: Mood alterations - Depressive symptom (AE table)” value was 0.0%. For the same compound, the “AR: Depression: Mood alterations with depressive symptoms (AE table)” value was 0.2%, the “AR: Dermatitis psoriasiform (AE table)” value was 0.0% and the “AR: Dermatitis, allergic (AE table)” value was 0.2%. The “AR: Diabetic Nephropathy (AE table)” value was 0.3%, the “AR: ESRD (AE table)” value was 0.1% and the “AR: Ear infection (AE table)” value was 0.9%. For the same compound, the “AR: Embolism and Thrombosis (AE table)” value was 1.2%, the “AR: Emphysema (AE table)” value was 0.4% and the “AR: Epilepsy (AE table)” value was 0.0%. For the same compound, the “AR: Erectile dysfunction (AE table)” value was 1.8%, the “AR: Furuncle (AE table)” value was 0.2% and the “AR: Gastroenteritis, viral (AE table)” value was 1.1%. The “AR: Gastroesophageal reflux (AE table)” value was 0.1%, the “AR: Gingivitis (AE table)” value was 0.2% and the “AR: Glomerulonephritis and Nephrotic Syndrome (AE table)” value was 0.0%. For the same compound, the “AR: Guttate psoriasis (AE table)” value was 0.0%, the “AR: Helicobacter infection (AE table)” value was 0.2% and the “AR: Hepatitis C (AE table)” value was 0.0%. For the same compound, the “AR: Herpes Zoster (AE table)” value was 1.8%, the “AR: Herpes simplex (AE table)” value was 0.2% and the “AR: Hyperglycemia (AE table)” value was 2.0%. The “AR: Hyperkalemia (AE table)” value was 1.1%, the “AR: Hypertension (AE table)” value was 8.1% and the “AR: Hypertensive Crisis (AE Table)” value was 0.9%. The “AR: Hypokalemia (AE table)” value was 2.0%, the “AR: Hypomagnesemia (AE table)” value was 0.9% and the “AR: Infected bite (AE table)” value was 0.1%. For the same compound, the “AR: Influenza (AE table)” value was 6.5%, the “AR: Influenza like illness (AE table)” value was 0.6% and the “AR: Jaundice cholestatic (AE table)” value was 0.0%. The “AR: Large intestine polyps (AE table)” value was 0.2%, the “AR: Limb Fractures and Dislocations (AE table)” value was 0.8% and the “AR: Lupus (AE table)” value was 0.0%. The “AR: Microalbuminuria (AE table)” value was 0.2%, the “AR: Migraine (AE table)” value was 0.2% and the “AR: Mucosal inflammation (AE table)” value was 0.1%. For the same compound, the “AR: Multiple Sclerosis (AE table)” value was 0.0%, the “AR: Muscle spasms (AE table)” value was 2.0% and the “AR: NASH (AE table)” value was 0.1%. The “AR: NASH for b/l NFS >0.675 (AE table)” value was 0.3%, the “AR: NASH+Hepatic Steatosis for NFS >0.675 (AE table)” value was 1,6% and the “AR: Nasopharyngitis, Mild Severity (AE table)” value was 7.7%. The “AR: Nephrolithiasis (AE table)” value was 2.0%, the “AR: Nephropathies (AE table)” value was 0.6% and the “AR: Nephrotic Syndrome (AE table)” value was 0.0%. For the same compound, the “AR: Orthopnea (AE table)” value was 0.1%, the “AR: PTSD (AE table)” value was 0.1% and the “AR: Pancytopenia (AE table)” value was 0.2%. The “AR: Pneumonia (AE table)” value was 6.6%, the “AR: Proteinuria (AE table)” value was 0.5% and the “AR: Psoriasis (AE table)” value was 0.5%. For the same compound, the “AR: Psoriatic Conditions (AE table)” value was 0.6%, the “AR: Psychosis: Psychotic disorder NEC (AE table)” value was 0.0% and the “AR: Pulmonary Edema (AE table)” value was 0.3%. For the same compound, the “AR: Respiratory Failure (AE table)” value was 0.5%, the “AR: Respiratory tract infection (AE table)” value was 1,2% and the “AR: Rheumatoid Arthritis (AE table)” value was 0.0%. The “AR: Rhinitis (AE table)” value was 0.5%, the “AR: Schizophrenia NEC (AE table)” value was 0.0% and the “AR: Sepsis (AE table)” value was 0.9%. The “AR: Severe chronic obstructive pulmonary disease (AE table)” value was 0.5%, the “AR: Severe dermatitis, allergic (AE table)” value was 0.1% and the “AR: Severe gastroenteritis (AE table)” value was 0.2%. For the same compound, the “AR: Severe sepsis (AE table)” value was 0.6%, the “AR: Severe systemic inflammatory response syndrome (AE table)” value was 0.1% and the “AR: Severe urinary tract infection (AE table)” value was 0.4%. For the same compound, the “AR: Systemic inflammatory response syndrome (AE table)” value was 0.1%, the “AR: Tooth infection (AE table)” value was 0.6% and the “AR: Ulcerative Colitis (AE table)” value was 0.0%. For the same compound, the “AR: Upper respiratory tract infection (AE table)” value was 7.7%, the “AR: Vascular hypertensive disorder (AE table)” value was 9.0% and the “AR: Viral infection (AE table)” value was 0.5%. For the same compound, the “AR: Vulvovaginal mycotic infection (AE table)” value was 0.2%, the “AR: Wheezing (AE table)” value was 0.7% and the “ARR: ADHD (AE table)” value was 0.0%. For the same compound, the “ARR: Allergic sinusitis (AE table)” value was −0.0%, the “ARR: Alzheimer's Disease (AE table)” value was 0.0% and the “ARR: Asthma (AE table)” value was 0.1%. For the same compound, the “ARR: Atelectasis (AE table)” value was −0.3%, the “ARR: Bipolar Disease (AE table)” value was −0.0% and the “ARR: Blood CPK increased (AE table)” value was −0.6%. The “ARR: Blood glucose increased (AE table)” value was −0.1%.
